Measurements taken from ChEMBL document CHEMBL1136541, “D-Phe-Pro-Arg type thrombin inhibitors: unexpected selectivity by modification of the P1 moiety” (Bioorg Med Chem Lett, 2003).

Biological target: T1, Serine protease 1 (Bos taurus, UniProt P00760)
T1 sequence (P00760 whole entry): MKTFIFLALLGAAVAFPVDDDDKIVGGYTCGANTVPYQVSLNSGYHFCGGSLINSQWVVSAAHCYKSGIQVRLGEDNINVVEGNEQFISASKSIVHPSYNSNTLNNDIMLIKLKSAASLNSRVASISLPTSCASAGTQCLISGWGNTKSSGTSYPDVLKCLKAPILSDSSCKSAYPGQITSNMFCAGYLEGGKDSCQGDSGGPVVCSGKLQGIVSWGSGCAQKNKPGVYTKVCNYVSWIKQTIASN
Assay: In vitro inhibitory activity against trypsin

Row | IC50 [µM] | Structure (SMILES)
1 | 0.306 | Cn1cc(CNC(=O)[C@@H]2C=CCN2C(=O)[C@@H](CC2CCCCC2)NCC(=O)O)cc1C(=N)N
2 | 0.016 | Cn1c(CNC(=O)[C@@H]2C=CCN2C(=O)[C@@H](CC2CCCCC2)NCC(=O)O)ccc1C(=N)N
